{"source": "patent US7410755B2", "about": "“ADP detection using an enzyme-coupled reaction” (Discoverx, priority 2005, dated 2008)", "target": "Protein Kinase A (PKA) (Homo sapiens, UniProt P17612)", "conditions": "read-out: Km of ATP for PKA; Kemptide substrate, PKA (Upstate), 30° C. for 1 hour; fitted to Michaelis-Menten equation; FIG. 4", "excerpt": "In this second example, kinase reaction, the activity of PKA is characterized further. In this experiment, the kinetics of ATP on PKA activity was examined by measuring the rate of kinase activity at varying concentration of ATP. The results of this assay were fitted to the Michaelis-Menten equation so that the Km (Michaelis-Menten constant) of ATP for PKA could be determined.\nTo perform a protein kinase assay using the ADP Detection Assay, the assay reagents were thawed at room temperature for several hours.\nLow salt assay buffer (LS ASB) was used to dilute all reagents in the kinase reaction and consisted of 15 mM Hepes, 20 mM NaCl, 1 mM EGTA, 0.02% Tween 20, 10 mM MgCl2, 0.1% bovine gamma globulin at pH 7.4. Substrate reagent was generated containing 800 μM Kemptide substrate. […] PKA kinase (Upstate) was diluted to give a reagent of 20 ng/ml. […]\nTo detect the generation of ADP as a result of kinase activity, 10 μ ADP Substrate Reagent was added followed immediately by 20 μl of ADP Enzyme Reagent. […] Assay signal was measured with a Fluorocount® fluorescent plate reader (Packard) using 0.1 second integration with excitation and emission wavelengths at 530 and 590 nm respectively and a PMT voltage of 750 Volts.\nThe data was converted by dividing the signal measured by 60 to obtain the enzyme rate in RFU per minute. […]", "data": [{"compound": "Nc1ncnc2c1ncn2[C@@H]1O[C@H](COP(=O)(O)OP(=O)(O)OP(=O)(O)O)[C@@H](O)[C@H]1O", "note": "[ATP]", "values": [{"measurement": "Km", "result": 22.3, "unit": "µM"}]}]}
